Measured values taken from patent publication US20150057246A1, “SILYL-CONTAINING HETEROCYCLIC COMPOUNDS AND METHODS OF USE THEREOF FOR THE TREATMENT OF VIRAL DISEASES” (priority 2012, published 2015).
Where two headings read alike, the source gives them in different places.

Experiments:
[1] = tested on: HCV 2b replicon; test: Cell-based HCV replicon assay (TaqMan), genotype 2b replicon; conditions: EC90 = concentration for ΔCT=3.2 over baseline
Procedure: (§1) Measurement of inhibition by compounds of the present invention was performed using the HCV replicon system. Several different replicons encoding different HCV genotypes or mutations were used. In addition, potency measurements were made using different formats of the replicon assay, including different ways of measurements and different plating formats. See Jan M. Vrolijk et al., A replicons-based bioassay for the measurement of interferons in patients with chronic hepatitis C, 110 J. VIROLOGICAL METHODS 201 (2003); Steven S. Carroll et al., Inhibition of Hepatitis C Virus RNA Replication by 2′-Modified Nucleoside Analogs, 278(14) J. BIOLOGICAL CHEMISTRY 11979 (2003). However, the underlying principles are common to all of these determinations, and are outlined below.
(§2) TaqMan®-Based Assay Protocol:
(§3) Compounds of the present invention were assayed for cell-based anti-HCV activity using the following protocol. Replicon cells were seeded at 5000 cells/well in 96-well collagen I-coated Nunc plates in the presence of the test compound. Various concentrations of test compound, typically in 10 serial 2-fold dilutions, were added to the assay mixture, with the starting concentration ranging from 250 μM to 1 μM. The final concentration of DMSO was 0.5%, fetal bovine serum was 5%, in the assay media. Cells were harvested on day 3 by the addition of 1× cell lysis buffer (Ambion cat #8721). The replicon RNA level was measured using real time PCR (TaqMan® assay). The amplicon was located in 5B. The PCR primers were: 5B.2F, ATGGACAGGCGCCCTGA (SEQ. ID NO. 1); 5B.2R, […] (SEQ. ID NO. 2); the probe sequence was FAM-labeled CACGCCATGCGCTGCGG (SEQ. ID NO. 3). GAPDH RNA was used as endogenous control and was amplified in the same reaction as NS5B (multiplex PCR) using primers and VIC-labeled probe recommended by the manufacturer (PE Applied Biosystem). The real-time […] reactions were run on ABI PRISM 7900HT Sequence Detection System using the following program: 48° C. for 30 minutes, 95° C. for 10 minutes, 40 cycles of 95° C. for 15 sec, 60° C. for 1 minute. The ΔCT values (CT5B-CTGAPDH) were plotted against the concentration of test compound and fitted to the sigmoid dose-response model using XLfit4 (MDL). EC50 was defined as the concentration of inhibitor necessary to achieve ΔCT=1 over the projected baseline; EC90 the concentration necessary to achieve ΔCT=3.2 over the baseline. Alternatively, to quantitate the absolute amount of replicon RNA, a standard curve was established by including serially diluted T7 transcripts of replicon RNA in the Taqman assay. All TaqMan® reagents were from PE Applied Biosystems. Such an assay procedure was described in detail in e.g. Malcolm et al., Antimicrobial Agents and Chemotherapy 50: 1013-1020 (2006).
(§4) HCV replicon EC50 assay data for various replicons and mutants was calculated for selected compounds of the present invention using this method and is provided in the tables above herein.

[2] = tested on: HCV 1a Y93H replicon; test: Cell-based HCV replicon assay (TaqMan), 1a Y93H mutant replicon; conditions: Hepatitis C virus, 72 h, read-out: 1a Y93H EC90, HCV 1a Y93H mutant replicon cells, replicon RNA by real time PCR, day 3; EC90 = concentration for ΔCT=3.2 over baseline
Procedure: as §1, §2, §3, §4

[3] = tested on: HCV 1a replicon; test: Cell-based HCV replicon assay (TaqMan), genotype 1a replicon; conditions: HCV genotype 1a replicon cells, replicon RNA by real time PCR, day 3, EC90 = concentration for ΔCT=3.2 over baseline
Procedure: as §1, §2, §3, §4

[4] = Hepatitis C virus, 72 h, read-out: 2b EC90, HCV genotype 2b replicon cells, replicon RNA by real time PCR, day 3

## COC(=O)N[C@H](C(=O)N1C[Si](C)(C)C[C@H]1c1nc2ccc3cc(-c4ccc(-c5cnc([C@@H]6CCCN6C(=O)[C@@H](NC(=O)OC)C6CC6)[nH]5)cc4)ccc3c2[nH]1)C(C)C [Compound 82]
[1]; [4]
  EC90: 154 nM
[2]
  EC90: 659 nM
[3]; Hepatitis C virus, 72 h
  EC90: 0.24 nM

## COC(=O)N[C@H](C(=O)N1CCC[C@H]1c1ncc(-c2ccc(-c3ccc4c(ccc5nc([C@@H]6C[Si](C)(C)CN6C(=O)[C@@H](NC(=O)OC)C(C)OC)[nH]c54)c3)cc2)[nH]1)C(C)OC (stereo partly drawn) [Compound 19]
[1]; [4]
  EC90: > 100 nM
[2]
  EC90: > 100 nM
[3]; Hepatitis C virus, 72 h
  EC90: 0.036 nM

## COC(=O)N[C@H](C(=O)N1C[Si](C)(C)C[C@H]1c1nc2ccc3cc(-c4ccc(-c5cnc([C@@H]6CCCN6C(=O)[C@@H](NC(=O)OC)[C@@H](C)OC)[nH]5)cc4)ccc3c2[nH]1)C(C)C [Compound 89]
[1]; [4]
  EC90: > 1000 nM
[2]
  EC90: > 1000 nM
[3]; Hepatitis C virus, 72 h
  EC90: 0.28 nM

## CC[C@H](C)[C@H](NC(=O)OC)C(=O)N1C[Si](C)(C)C[C@H]1c1nc2ccc3cc(-c4ccc(-c5cnc([C@@H]6CCCN6C(=O)[C@@H](NC(=O)OC)C(C)C)[nH]5)cc4)ccc3c2[nH]1 [Compound 59]
[1]; [4]
  EC90: 245 nM
[2]
  EC90: > 1000 nM
[3]; Hepatitis C virus, 72 h
  EC90: 0.61 nM

## CCCC(NC(=O)OC)C(=O)N1C[Si](C)(C)C[C@H]1c1ncc(-c2ccc(-c3ccc4c(ccc5nc([C@@H]6CCCN6C(=O)[C@H](CCC)NC(=O)OC)[nH]c54)c3)cc2)[nH]1 (stereo partly drawn) [Compound 48]
[1]; [4]
  EC90: 882 nM
[2]
  EC90: 761 nM
[3]; Hepatitis C virus, 72 h
  EC90: 0.64 nM

## CCN(CC)[C@@H](C(=O)N1CCC[C@H]1c1ncc(-c2ccc(-c3ccc4c(ccc5nc([C@@H]6C[Si](C)(C)CN6C(=O)[C@@H](c6ccccc6)N(CC)CC)[nH]c54)c3)cc2)[nH]1)c1ccccc1 [Compound 21]
[1]; [4]
  EC90: 0.39 nM
[2]
  EC90: > 100 nM
[3]; Hepatitis C virus, 72 h
  EC90: 0.25 nM

## COC(=O)N[C@H](C(=O)N1CCC[C@H]1c1ncc(-c2ccc(-c3ccc4c(ccc5nc([C@@H]6C[Si](C)(C)CN6C(=O)[C@@H](NC(=O)OC)[C@@H](C)OC)[nH]c54)c3)cc2)[nH]1)C(C)C [Compound 60]
[1]; [4]
  EC90: 52.8 nM
[2]
  EC90: > 1000 nM
[3]; Hepatitis C virus, 72 h
  EC90: 0.21 nM

## COC(=O)N[C@@H](C(=O)N1C[Si](C)(C)C[C@H]1c1ncc(-c2ccc(-c3ccc4c(ccc5nc([C@@H]6CCCN6C(=O)[C@H](NC(=O)OC)c6ccccc6)[nH]c54)c3)cc2)[nH]1)c1ccccc1 [Compound 53]
[1]; [4]
  EC90: > 1000 nM
[2]
  EC90: > 1000 nM
[3]; Hepatitis C virus, 72 h
  EC90: 7.27 nM

## COC(=O)N[C@@H](Cn1ncnn1)C(=O)N1C[Si](C)(C)C[C@H]1c1ncc(-c2ccc(-c3ccc4c(ccc5nc([C@@H]6CCCN6C(=O)[C@H](Cn6ncnn6)NC(=O)OC)[nH]c54)c3)cc2)[nH]1 [Compound 38]
[1]; [4]
  EC90: 408 nM
[2]
  EC90: > 1000 nM
[3]; Hepatitis C virus, 72 h
  EC90: 2.57 nM

## COC(=O)N[C@@H](CC(C)(C)C)C(=O)N1CCC[C@H]1c1ncc(-c2ccc(-c3ccc4c(ccc5nc([C@@H]6C[Si](C)(C)CN6C(=O)[C@@H](NC(=O)OC)C(C)C)[nH]c54)c3)cc2)[nH]1 [Compound 84]
[1]; [4]
  EC90: 413 nM
[2]
  EC90: > 1000 nM
[3]; Hepatitis C virus, 72 h
  EC90: 0.92 nM

## COC(=O)N[C@H](C(=O)N1C[Si](C)(C)C[C@H]1c1nc2ccc3cc(-c4ccc(-c5cnc([C@@H]6CCCN6C(=O)[C@@H](NC(=O)OC)C6CCCC6)[nH]5)cc4)ccc3c2[nH]1)C(C)C [Compound 85]
[1]; [4]
  EC90: 330 nM
[2]
  EC90: > 1000 nM
[3]; Hepatitis C virus, 72 h
  EC90: 0.52 nM

## COC(=O)N[C@H](C(=O)N1CCC[C@H]1c1ncc(-c2ccc(-c3ccc4c(ccc5nc([C@@H]6C[Si](C)(C)CN6C(=O)[C@@H](NC(=O)OC)C6CCCC6)[nH]c54)c3)cc2)[nH]1)C(C)C [Compound 58]
[1]; [4]
  EC90: 265 nM
[2]
  EC90: 580 nM
[3]; Hepatitis C virus, 72 h
  EC90: 0.45 nM

## COC(=O)N[C@H](C(=O)N1CCC[C@H]1c1nc(Cl)c(-c2ccc(-c3ccc4c(ccc5nc([C@@H]6C[Si](C)(C)CN6C(=O)[C@@H](NC(=O)OC)C(C)C)[nH]c54)c3)cc2)[nH]1)C(C)C [Compound 94]
[1]; [4]
  EC90: 184 nM
[2]
  EC90: 935 nM
[3]; Hepatitis C virus, 72 h
  EC90: 0.19 nM

## CC[C@H](C)[C@H](NC(=O)OC)C(=O)N1CCC[C@H]1c1ncc(-c2ccc(-c3ccc4c(ccc5nc([C@@H]6C[Si](C)(C)CN6C(=O)[C@@H](NC(=O)OC)C(C)C)[nH]c54)c3)cc2)[nH]1 [Compound 81]
[1]; [4]
  EC90: 561 nM
[2]
  EC90: 994 nM
[3]; Hepatitis C virus, 72 h
  EC90: 0.3 nM

## COC(=O)N[C@@H](CC1CC1)C(=O)N1CCC[C@H]1c1ncc(-c2ccc(-c3ccc4c(ccc5nc([C@@H]6C[Si](C)(C)CN6C(=O)[C@@H](NC(=O)OC)C(C)C)[nH]c54)c3)cc2)[nH]1 [Compound 83]
[1]; [4]
  EC90: 406 nM
[2]
  EC90: 528 nM
[3]; Hepatitis C virus, 72 h
  EC90: 0.46 nM

## COC(=O)N[C@@H](CO)C(=O)N1CCC[C@H]1c1ncc(-c2ccc(-c3ccc4c(ccc5nc([C@@H]6C[Si](C)(C)CN6C(=O)[C@@H](NC(=O)OC)C(C)C)[nH]c54)c3)cc2)[nH]1 [Compound 90]
[1]; [4]
  EC90: > 1000 nM
[2]
  EC90: > 1000 nM
[3]; Hepatitis C virus, 72 h
  EC90: 0.56 nM

## COC(=O)N[C@H](C(=O)N1CCC[C@H]1c1ncc(-c2ccc(-c3ccc4c(ccc5nc([C@@H]6C[Si](C)(C)CN6C(=O)[C@@H]6COCCN6C(=O)OC)[nH]c54)c3)cc2)[nH]1)C(C)C [Compound 64]
[1]; [4]
  EC90: 273 nM
[2]
  EC90: > 1000 nM
[3]; Hepatitis C virus, 72 h
  EC90: 1.6 nM

## COC(=O)N[C@H](C(=O)N1C[Si](C)(C)C[C@H]1c1nc2ccc3cc(-c4ccc(-c5[nH]c([C@@H]6C[C@H]7C[C@H]7N6C(=O)[C@@H](NC(=O)OC)C6CCOCC6)nc5Cl)cc4)ccc3c2[nH]1)C1CCOCC1 [Compound 103]
[1]; [4]
  EC90: 2.85 nM
[2]
  EC90: 16.1 nM
[3]; Hepatitis C virus, 72 h
  EC90: 0.082 nM

## COC(=O)N[C@H](C(=O)N1CCC[C@H]1c1ncc(-c2ccc(-c3ccc4c(ccc5nc([C@@H]6C[Si](C)(C)CN6C(=O)[C@H]6COCCN6C(=O)OC)[nH]c54)c3)cc2)[nH]1)C(C)C [Compound 63]
[1]; [4]
  EC90: > 1000 nM
[2]
  EC90: > 1000 nM
[3]; Hepatitis C virus, 72 h
  EC90: 5.1 nM

## COC(=O)N[C@@H](Cn1cccn1)C(=O)N1C[Si](C)(C)C[C@H]1c1nc2ccc3cc(-c4ccc(-c5cnc([C@@H]6CCCN6C(=O)[C@@H](NC(=O)OC)C(C)C)[nH]5)cc4)ccc3c2[nH]1 [Compound 66]
[1]; [4]
  EC90: 321 nM
[2]
  EC90: > 1000 nM
[3]; Hepatitis C virus, 72 h
  EC90: 0.39 nM

## COC(=O)N[C@@H](Cc1ccccc1)C(=O)N1C[Si](C)(C)C[C@H]1c1ncc(-c2ccc(-c3ccc4c(ccc5nc([C@@H]6CCCN6C(=O)[C@H](Cc6ccccc6)NC(=O)OC)[nH]c54)c3)cc2)[nH]1 [Compound 46]
[1]; [4]
  EC90: > 1000 nM
[2]
  EC90: > 1000 nM
[3]; Hepatitis C virus, 72 h
  EC90: 4.75 nM

## COC(=O)N[C@H](C(=O)N1C[Si](C)(C)C[C@H]1c1nc2ccc3cc(-c4ccc(-c5cnc([C@@H]6CCCN6C(=O)[C@@H](NC(=O)OC)[C@@H](C)O)[nH]5)cc4)ccc3c2[nH]1)C(C)C [Compound 87]
[1]; [4]
  EC90: 81.7 nM
[2]
  EC90: > 1000 nM
[3]; Hepatitis C virus, 72 h
  EC90: 0.67 nM

## COC(=O)N[C@@H](Cc1cn(C)cn1)C(=O)N1C[Si](C)(C)C[C@H]1c1nc2ccc3cc(-c4ccc(-c5cnc([C@@H]6CCCN6C(=O)[C@@H](NC(=O)OC)C(C)C)[nH]5)cc4)ccc3c2[nH]1 [Compound 65]
[1]; [4]
  EC90: 308 nM
[2]
  EC90: 564 nM
[3]; Hepatitis C virus, 72 h
  EC90: 0.36 nM

## CC[C@H](C)[C@H](NC(=O)OC)C(=O)N1C[Si](C)(C)C[C@H]1c1ncc(-c2ccc(-c3ccc4c(ccc5nc([C@@H]6CCCN6C(=O)[C@@H](NC(=O)OC)[C@@H](C)CC)[nH]c54)c3)cc2)[nH]1 [Compound 41]
[1]; read-out: 2b EC90, HCV genotype 2b replicon cells, replicon RNA by real time PCR, day 3
  EC90: 271 nM
[2]
  EC90: 614 nM
[3]
  EC90: 0.19 nM
